Earlier results on 1 compound are cited in patent publication US20020076434A1, “Liposomal retinoid therapy in hormone refractory prostate cancer” (Aronex Pharmaceuticals, Inc., priority 2000, published 2002).

Data set [1] relates to HRPC. Particulars: Kelly: 50 mg/m^2 every 8 hours for 8 weeks, 14 patients; Trump: days 1-14 every 22 days, 17 patients.
Data set [2] relates to HRPC.
Where [3] appears, read: one patient achieving CR, baseline PSA 25.0 ng/mL.

As to `CC1=C(/C=C/C(C)=C/C=C/C(C)=C/C(=O)O)C(C)(C)CCC1` [oral ATRA, all trans retinoic acid], in the data set with HRPC [1], the Tumor response entry is given as “little tumor response”. Moreover, the “Number of biological responses” value in the data set with HRPC [2] (26 HRPC patients, oral 45 mg/m^2 daily for 7 days, 7 days off, resumed Day 14) is on record as 4. Also, in the data set with HRPC [2] (setting [3]), the Maximum response duration was 3 month and the “Time serum PSA remained within normal limits after the last dose” value is on record as 8 weeks.
